Laboratory results taken from PubChem BioAssay AID248 (DTP/NCI, 2004).
Inconclusive results and toxic doses are left out. Cut-off read from the data, not from the text of the source: active = T/C of 150% or more; inactive = T/C below 125%.

Test system: L1210 leukemia ip in BDF1 mice, survival T/C
Assay: NCI In Vivo Anticancer Drug Screen. Data for tumor model L1210 Leukemia (intraperitoneal) in B6D2F1 (BDF1) mice
Conditions: endpoint: mean survival time, higher = longer survival
Summary of the method: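 Read-out is survival time, reported as the treated-group measurement over the vehicle-control measurement.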

[1] = dose: 100.0 mg/kg/injection, schedule: Q04DX002 (ip), vehicle: Klucel (hydroxypropylcellulose) (HPC)
[2] = dose: 200.0 mg/kg/injection, schedule: Q04DX002 (ip), vehicle: Klucel (hydroxypropylcellulose) (HPC)
[3] = dose: 400.0 mg/kg/injection, schedule: Q04DX002 (ip), vehicle: Klucel (hydroxypropylcellulose) (HPC)
[4] = dose: 100.0 mg/kg/injection, schedule: Q04DX003 (ip), vehicle: saline with Tween-80
[5] = dose: 200.0 mg/kg/injection, schedule: Q04DX003 (ip), vehicle: saline with Tween-80
[6] = dose: 400.0 mg/kg/injection, schedule: Q04DX003 (ip), vehicle: saline with Tween-80
[7] = dose: 50.0 mg/kg/injection, schedule: Q01DX009 (ip), vehicle: saline with Tween-80
[8] = dose: 100.0 mg/kg/injection, schedule: Q01DX009 (ip), vehicle: saline with Tween-80
[9] = dose: 100.0 mg/kg/injection, schedule: Q04DX002 (ip), vehicle: saline
[10] = dose: 200.0 mg/kg/injection, schedule: Q04DX002 (ip), vehicle: saline

Measured: T/C

CC12C=CC(=O)C=C1CCC1C2C(O)CC2(C)C1CCC2(O)C(=O)CSc1ncnc2nc[nH]c12 (configuration not stated)
inactive: dose: 60.0 mg/kg/injection, schedule: Q01DX015 (ip), vehicle: saline 92 % of control | dose: 90.0 mg/kg/injection, schedule: Q01DX015 (ip), vehicle: saline 100 % of control | dose: 100.0 mg/kg/injection, schedule: Q01DX001 (sc), vehicle: steriod suspending solution 112 % of control | dose: 135.0 mg/kg/injection, schedule: Q01DX015 (ip), vehicle: saline 92 % of control | dose: 200.0 mg/kg/injection, schedule: Q01DX001 (sc), vehicle: steriod suspending solution 112 % of control | dose: 200.0 mg/kg/injection, schedule: Q01DX015 (ip), vehicle: saline 92 % of control | dose: 400.0 mg/kg/injection, schedule: Q01DX001 (sc), vehicle: steriod suspending solution 97 % of control

CC(=O)N(C)c1ccc(NC(=O)/C=C/c2ccccc2)cc1
inactive: dose: 100.0 mg/kg/injection, schedule: Q01DX009 (ip), vehicle: Klucel (hydroxypropylcellulose) (HPC) 95 % of control | dose: 200.0 mg/kg/injection, schedule: Q01DX009 (ip), vehicle: Klucel (hydroxypropylcellulose) (HPC) 101 % of control | dose: 400.0 mg/kg/injection, schedule: Q01DX009 (ip), vehicle: Klucel (hydroxypropylcellulose) (HPC) 105 % of control

CCCN(CCC#N)C(=S)Nc1ccc(C)c(C)c1
inactive: [1] 94 % of control | [2] 97 % of control | [3] 94 % of control

CN(C)c1nc(C(=O)O)cc(=O)[nH]1
inactive: dose: 100.0 mg/kg/injection, schedule: Q01DX Z (ip), vehicle: saline 101 % of control | dose: 200.0 mg/kg/injection, schedule: Q01DX Z (ip), vehicle: saline 100 % of control

CCN(CC)CCCNC=O
inactive: dose: 100.0 mg/kg/injection, schedule: Q01DX009 (ip), vehicle: saline 94 % of control | dose: 100.0 mg/kg/injection, schedule: Q04DX003 (ip), vehicle: saline 111 % of control | dose: 200.0 mg/kg/injection, schedule: Q01DX009 (ip), vehicle: saline 94 % of control | dose: 200.0 mg/kg/injection, schedule: Q04DX003 (ip), vehicle: saline 102 % of control | dose: 400.0 mg/kg/injection, schedule: Q01DX009 (ip), vehicle: saline 94 % of control | dose: 400.0 mg/kg/injection, schedule: Q04DX003 (ip), vehicle: saline 108 % of control

Nc1nc(N)c(-c2ccc(Cl)cc2)c(CNc2ccc([N+](=O)[O-])cc2)n1
inactive: [4] 109 % of control | [5] 95 % of control | [6] 95 % of control

N#Cc1ccc(OCCCCCOc2ccc([N+](=O)[O-])cc2)cc1
inactive: dose: 75.0 mg/kg/injection, schedule: Q01DX009 (ip), vehicle: Klucel (hydroxypropylcellulose) (HPC) 101 % of control | dose: 150.0 mg/kg/injection, schedule: Q01DX009 (ip), vehicle: Klucel (hydroxypropylcellulose) (HPC) 97 % of control | dose: 300.0 mg/kg/injection, schedule: Q01DX009 (ip), vehicle: Klucel (hydroxypropylcellulose) (HPC) 100 % of control

O=C(O)c1ccccc1C(=O)c1ccc(CBr)cc1
inactive: dose: 6.25 mg/kg/injection, schedule: Q01DX009 (ip), vehicle: saline with Tween-80 92 % of control | dose: 12.5 mg/kg/injection, schedule: Q01DX009 (ip), vehicle: saline with Tween-80 104 % of control | dose: 25.0 mg/kg/injection, schedule: Q01DX009 (ip), vehicle: saline with Tween-80 97 % of control

Cc1c(Cl)cccc1NC(=O)Oc1cc(Cl)c(Cl)cc1Cl
inactive: [7] 92 % of control | [8] 96 % of control | [4] 95 % of control | [5] 106 % of control

O=C1C2CCN(CC2)C1Cc1ccccc1 (configuration not stated)
inactive: [9] 111 % of control | [10] 107 % of control

COc1ccc(C(C)S(=O)(=O)c2ccc(C)cc2)cc1OC (configuration not stated)
inactive: dose: 100.0 mg/kg/injection, schedule: Q01DX001 (ip), vehicle: carboxymethylcellulose (CMC) 97 % of control | dose: 200.0 mg/kg/injection, schedule: Q01DX001 (ip), vehicle: carboxymethylcellulose (CMC) 97 % of control | dose: 400.0 mg/kg/injection, schedule: Q01DX001 (ip), vehicle: carboxymethylcellulose (CMC) 94 % of control

Cc1cccc(C)c1OC(=O)NC1CCCCC1
inactive: [1] 107 % of control | [2] 89 % of control | [3] 96 % of control

CCN(C(=S)c1ccc(OC)cc1)c1cccc(C)c1
inactive: dose: 75.0 mg/kg/injection, schedule: Q04DX003 (ip), vehicle: Klucel (hydroxypropylcellulose) (HPC) 94 % of control | dose: 100.0 mg/kg/injection, schedule: Q01DX001 (ip), vehicle: Klucel (hydroxypropylcellulose) (HPC) 103 % of control | dose: 150.0 mg/kg/injection, schedule: Q04DX003 (ip), vehicle: Klucel (hydroxypropylcellulose) (HPC) 111 % of control | dose: 200.0 mg/kg/injection, schedule: Q01DX001 (ip), vehicle: Klucel (hydroxypropylcellulose) (HPC) 97 % of control | dose: 300.0 mg/kg/injection, schedule: Q04DX003 (ip), vehicle: Klucel (hydroxypropylcellulose) (HPC) 100 % of control | dose: 400.0 mg/kg/injection, schedule: Q01DX001 (ip), vehicle: Klucel (hydroxypropylcellulose) (HPC) 96 % of control

COc1cc(N=Nc2ccc([N+](=O)[O-])cc2)c(OC)cc1N
inactive: dose: 5.0 mg/kg/injection, schedule: Q01DX001 (ip), vehicle: other 98 % of control | dose: 10.0 mg/kg/injection, schedule: Q01DX001 (ip), vehicle: other 101 % of control | dose: 20.0 mg/kg/injection, schedule: Q01DX001 (ip), vehicle: other 98 % of control | dose: 40.0 mg/kg/injection, schedule: Q01DX001 (ip), vehicle: other 101 % of control

COC(=O)C1CCCN1C(=O)C(C)=O (configuration not stated)
inactive: [9] 102 % of control | [10] 94 % of control | dose: 400.0 mg/kg/injection, schedule: Q04DX002 (ip), vehicle: saline 113 % of control

O=C(CCCC(=O)N/N=C/c1ccc(O)cc1O)N/N=C\c1ccc(O)cc1O
inactive: dose: 50.0 mg/kg/injection, schedule: Q01DX001 (ip), vehicle: saline 90 % of control | dose: 100.0 mg/kg/injection, schedule: Q01DX001 (ip), vehicle: saline 96 % of control | dose: 200.0 mg/kg/injection, schedule: Q01DX001 (ip), vehicle: saline 96 % of control | dose: 400.0 mg/kg/injection, schedule: Q01DX001 (ip), vehicle: saline 93 % of control

COC(=O)CC[C@@H](C)[C@H]1CC[C@H]2[C@@H]3CC[C@@H]4C[C@H](O)CC[C@]4(C)[C@H]3CC[C@]12C
inactive: dose: 100.0 mg/kg/injection, schedule: Q01DX009 (sc), vehicle: olive oil, sesame oil, peanut oil 107 % of control | dose: 200.0 mg/kg/injection, schedule: Q01DX009 (sc), vehicle: olive oil, sesame oil, peanut oil 102 % of control | dose: 400.0 mg/kg/injection, schedule: Q01DX009 (sc), vehicle: olive oil, sesame oil, peanut oil 95 % of control

CC(=O)Oc1ccc2c(c1)C(=O)CCCC2
inactive: [7] 88 % of control | [8] 88 % of control | dose: 200.0 mg/kg/injection, schedule: Q01DX009 (ip), vehicle: saline with Tween-80 88 % of control

COc1cc2c(cc1OC)C13CCN4C=C5CCOC6CC(=O)N2C1C6C5CC43 (configuration not stated)
inactive: dose: 75.0 mg/kg/injection, schedule: Q01DX001 (ip), vehicle: other 96 % of control

CCCCCCCC(=O)Nc1ccc(C)c(C)c1
inactive: [4] 93 % of control | [5] 98 % of control | [6] 93 % of control

O=C1C(=O)c2ccccc2-c2ccccc21.O=C1C(=O)c2ccccc2-c2ccccc21.[Hg]
inactive: dose: 6.25 mg/kg/injection, schedule: Q04DX003 (ip), vehicle: saline with Tween-80 95 % of control

CC(C)(CCCO)c1ccccc1
inactive: [7] 96 % of control | [8] 104 % of control
